Results reported in publication PMC11233931, “Remodeling tumor‐associated macrophage for anti‐cancer effects by rational design of irreversible inhibition of mitogen‐activated protein kinase‐activated protein kinase 2” (MedComm, 2024).
Where two headings read alike, the source gives them in different places.

Tests used:
Assay in all cases: Eurofins kinase selectivity profile, p38
Assay type in all cases: biochemical
p38 [1] = molecular target: T1, p38 (Homo sapiens, UniProt P53778); settings: p38-gamma/SAPK3(h), read-out: Inhibition rate (%)
T1 construct: purchased Eurofins (Celle Lévescault)
T1 sequence (P53778 1-367): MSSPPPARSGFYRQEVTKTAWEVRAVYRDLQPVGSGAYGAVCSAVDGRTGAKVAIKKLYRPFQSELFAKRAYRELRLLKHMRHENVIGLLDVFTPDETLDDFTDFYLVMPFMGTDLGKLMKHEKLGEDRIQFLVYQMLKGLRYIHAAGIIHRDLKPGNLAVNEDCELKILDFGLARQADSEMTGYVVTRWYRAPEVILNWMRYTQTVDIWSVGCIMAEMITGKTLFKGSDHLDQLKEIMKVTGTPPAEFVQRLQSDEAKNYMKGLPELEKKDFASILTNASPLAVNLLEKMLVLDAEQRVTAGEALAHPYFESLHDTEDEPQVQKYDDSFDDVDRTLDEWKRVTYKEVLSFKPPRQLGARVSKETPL
Protocol: (§1) Subsequently, to ascertain whether the high potency of compound 11 was specific for MK2, an additional 380 human recombinant protein kinases were screened.
(§2) To assess the impact of various compounds on MK2 kinase activity, we utilized the ADP‐Glo Assay Kit (Promega) following the manufacturer's instructions. Luminescence measurements were taken using a SpectraMax Paradigm reader. The inhibition percentage was calculated using the following formula: ((specific signalDMSO control − specific signal inhibitor)/(specific signalDMSO control)) × 100%. The IC50 values were determined employing dose–response curve fitting via Prism (Graph Pad). Additionally, Eurofins company (Celle Lévescault) conducted the analysis on compound 11’s inhibitory activity against 380 other human recombinant kinases at various concentrations.

p38 [2] = molecular target: T2, p38 (Homo sapiens, UniProt Q16539)
T2 construct: purchased Eurofins (Celle Lévescault)
T2 sequence (Q16539 2-360): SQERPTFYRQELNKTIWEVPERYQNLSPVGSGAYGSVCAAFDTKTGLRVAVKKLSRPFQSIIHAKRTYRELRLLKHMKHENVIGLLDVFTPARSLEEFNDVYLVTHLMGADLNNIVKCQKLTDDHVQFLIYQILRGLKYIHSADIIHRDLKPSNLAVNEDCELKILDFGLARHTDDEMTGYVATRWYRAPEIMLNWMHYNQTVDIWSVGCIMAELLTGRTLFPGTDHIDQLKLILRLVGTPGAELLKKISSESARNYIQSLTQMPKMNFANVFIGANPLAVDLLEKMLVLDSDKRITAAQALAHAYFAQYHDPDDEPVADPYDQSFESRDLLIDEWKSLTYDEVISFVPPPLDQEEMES
Protocol: as §1, §2

p38 [3] = molecular target: T3, p38 (Homo sapiens, UniProt O15264); settings: p38-delta/SAPK4(h), read-out: Inhibition rate (%)
T3 construct: purchased Eurofins (Celle Lévescault)
T3 sequence (O15264 1-365): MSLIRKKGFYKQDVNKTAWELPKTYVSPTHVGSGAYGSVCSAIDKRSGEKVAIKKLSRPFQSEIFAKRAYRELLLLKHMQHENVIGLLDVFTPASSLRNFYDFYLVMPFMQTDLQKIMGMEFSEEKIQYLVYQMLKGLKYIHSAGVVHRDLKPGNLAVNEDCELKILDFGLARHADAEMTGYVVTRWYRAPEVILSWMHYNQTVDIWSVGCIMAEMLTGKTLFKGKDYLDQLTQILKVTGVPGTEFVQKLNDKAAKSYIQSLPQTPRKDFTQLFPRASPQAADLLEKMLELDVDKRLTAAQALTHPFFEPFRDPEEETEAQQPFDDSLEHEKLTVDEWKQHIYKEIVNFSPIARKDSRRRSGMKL
Protocol: as §1, §2

p38 [4] = molecular target: T4, p38 (Homo sapiens, UniProt Q15759); settings: p38-beta/SAPK2b(h), read-out: Inhibition rate (%)
T4 construct: purchased Eurofins (Celle Lévescault)
T4 sequence (Q15759 whole entry): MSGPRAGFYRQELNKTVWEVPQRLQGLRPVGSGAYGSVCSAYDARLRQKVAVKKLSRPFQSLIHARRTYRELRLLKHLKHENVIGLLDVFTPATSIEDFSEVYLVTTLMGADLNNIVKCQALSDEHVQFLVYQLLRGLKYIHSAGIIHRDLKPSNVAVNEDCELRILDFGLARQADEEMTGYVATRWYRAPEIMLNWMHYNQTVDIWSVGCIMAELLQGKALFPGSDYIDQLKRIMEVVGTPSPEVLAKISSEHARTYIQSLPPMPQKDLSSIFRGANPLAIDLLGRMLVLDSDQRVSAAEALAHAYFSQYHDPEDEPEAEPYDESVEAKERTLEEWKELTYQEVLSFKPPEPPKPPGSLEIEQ
Protocol: as §1, §2

Structure (SMILES): C=CC(=O)Nc1cc(-c2cc(-c3cc4c([nH]3)CCNC4=O)ccn2)ccc1OC(F)(F)F [compound 11]
- inhibition at 0.01 µM (p38 [1]; 10 nM): 5%
- inhibition at 0.1 µM (p38 [1]; 100 nM): 2%
- inhibition at 1 µM (p38 [1]; 1000 nM): 20%
- IC50 (p38 [2]): > 1000 nM
- inhibition at 1 µM (p38 [2]; 1 µM, read-out: inhibition rate on p38 kinase): < 10%
- inhibition at 0.01 µM (p38 [2]; p38-alpha/SAPK2a(h), 10 nM, read-out: Inhibition rate): 0%
- inhibition at 0.1 µM (p38 [2]; p38-alpha/SAPK2a(h), 100 nM, read-out: Inhibition rate): -3%
- inhibition at 1 µM (p38 [2]; p38-alpha/SAPK2a(h), 1000 nM, read-out: Inhibition rate): -5%
- inhibition at 0.01 µM (p38 [3]; 10 nM): -3%
- inhibition at 0.1 µM (p38 [3]; 100 nM): -6%
- inhibition at 1 µM (p38 [3]; 1000 nM): 8%
- inhibition at 0.01 µM (p38 [4]; 10 nM): -7%
- inhibition at 0.1 µM (p38 [4]; 100 nM): -11%
- inhibition at 1 µM (p38 [4]; 1000 nM): -4%
